# Experimental data published in patent publication US9636418B2 (priority 2013, dated 2017).
# “And” between values parts separate entries of the source, which are not always exact repeats. Identical values can stand only once.
# Experiments:
# Assay in all cases: cell-based
# hNav1.5 = hNav1.5 (Homo sapiens, UniProt Q14524); details: IonWorks Quattro; read-out: IC50 Nav1.5
# hNav1.4 = hNav1.4 (Homo sapiens, UniProt P35499); details: for IC50: IonWorks Quattro, read-out: IC50 Nav1.4; for Nav1.4/Nav1.7: ratio of IonWorks Quattro IC50 values
# hNav1.3 = hNav1.3 (Homo sapiens, UniProt Q9NY46); details: IonWorks Quattro; read-out: IC50 Nav1.3
# Sequence of hNav1.3 (Q9NY46 whole entry): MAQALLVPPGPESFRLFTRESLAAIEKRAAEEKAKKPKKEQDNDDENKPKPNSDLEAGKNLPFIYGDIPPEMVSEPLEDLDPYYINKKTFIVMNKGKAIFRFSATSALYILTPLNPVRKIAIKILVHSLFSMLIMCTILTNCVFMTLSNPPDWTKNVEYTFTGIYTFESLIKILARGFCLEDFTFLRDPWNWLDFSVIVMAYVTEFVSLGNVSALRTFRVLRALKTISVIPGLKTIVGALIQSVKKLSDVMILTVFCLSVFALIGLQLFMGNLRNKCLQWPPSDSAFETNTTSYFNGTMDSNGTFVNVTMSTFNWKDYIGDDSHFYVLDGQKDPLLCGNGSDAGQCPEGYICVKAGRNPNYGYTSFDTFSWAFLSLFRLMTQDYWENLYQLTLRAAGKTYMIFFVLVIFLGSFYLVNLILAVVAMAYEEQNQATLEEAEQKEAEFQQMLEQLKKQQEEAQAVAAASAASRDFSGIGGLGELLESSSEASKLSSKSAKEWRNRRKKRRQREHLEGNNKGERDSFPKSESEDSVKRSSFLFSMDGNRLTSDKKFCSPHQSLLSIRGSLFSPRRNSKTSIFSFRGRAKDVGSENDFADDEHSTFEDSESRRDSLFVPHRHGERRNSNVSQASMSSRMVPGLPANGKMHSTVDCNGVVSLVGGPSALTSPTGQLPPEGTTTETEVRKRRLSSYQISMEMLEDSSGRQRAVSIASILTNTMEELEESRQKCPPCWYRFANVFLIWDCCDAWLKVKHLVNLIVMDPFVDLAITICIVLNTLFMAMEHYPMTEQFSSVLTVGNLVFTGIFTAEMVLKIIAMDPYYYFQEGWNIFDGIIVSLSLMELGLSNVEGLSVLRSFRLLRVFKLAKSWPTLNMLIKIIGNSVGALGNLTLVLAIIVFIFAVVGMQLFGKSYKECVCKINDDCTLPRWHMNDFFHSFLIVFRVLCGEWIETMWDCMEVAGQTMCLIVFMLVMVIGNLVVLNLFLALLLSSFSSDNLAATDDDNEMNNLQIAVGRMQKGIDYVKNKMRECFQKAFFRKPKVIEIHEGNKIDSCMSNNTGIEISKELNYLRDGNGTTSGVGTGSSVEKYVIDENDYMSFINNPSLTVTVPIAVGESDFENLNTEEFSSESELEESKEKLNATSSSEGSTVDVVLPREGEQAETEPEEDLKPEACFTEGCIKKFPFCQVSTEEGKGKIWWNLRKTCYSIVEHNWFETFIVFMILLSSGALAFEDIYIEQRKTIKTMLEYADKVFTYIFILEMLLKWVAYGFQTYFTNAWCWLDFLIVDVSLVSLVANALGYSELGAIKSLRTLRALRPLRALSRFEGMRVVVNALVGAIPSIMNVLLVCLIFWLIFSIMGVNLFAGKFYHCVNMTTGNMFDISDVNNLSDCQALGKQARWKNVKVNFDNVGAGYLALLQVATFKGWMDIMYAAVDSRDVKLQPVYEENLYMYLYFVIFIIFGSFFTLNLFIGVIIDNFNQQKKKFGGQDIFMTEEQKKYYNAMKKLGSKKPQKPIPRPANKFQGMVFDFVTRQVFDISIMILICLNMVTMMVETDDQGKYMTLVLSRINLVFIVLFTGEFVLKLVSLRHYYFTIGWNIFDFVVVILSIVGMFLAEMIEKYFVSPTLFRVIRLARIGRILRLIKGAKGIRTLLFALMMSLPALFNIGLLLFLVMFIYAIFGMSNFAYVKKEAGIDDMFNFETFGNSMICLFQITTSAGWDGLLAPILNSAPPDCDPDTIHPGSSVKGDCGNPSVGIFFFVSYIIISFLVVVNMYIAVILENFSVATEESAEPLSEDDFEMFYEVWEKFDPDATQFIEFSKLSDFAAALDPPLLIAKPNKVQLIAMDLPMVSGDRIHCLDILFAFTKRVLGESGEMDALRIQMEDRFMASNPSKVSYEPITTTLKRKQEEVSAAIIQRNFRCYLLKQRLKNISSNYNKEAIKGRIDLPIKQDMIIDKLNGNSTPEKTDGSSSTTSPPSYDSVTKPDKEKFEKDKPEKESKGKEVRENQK
# hNav1.7 = hNav1.7 (Homo sapiens, UniProt Q15858); details: IonWorks Quattro; read-out: IC50 Nav1.7
# Sequence of hNav1.7 (Q15858 whole entry): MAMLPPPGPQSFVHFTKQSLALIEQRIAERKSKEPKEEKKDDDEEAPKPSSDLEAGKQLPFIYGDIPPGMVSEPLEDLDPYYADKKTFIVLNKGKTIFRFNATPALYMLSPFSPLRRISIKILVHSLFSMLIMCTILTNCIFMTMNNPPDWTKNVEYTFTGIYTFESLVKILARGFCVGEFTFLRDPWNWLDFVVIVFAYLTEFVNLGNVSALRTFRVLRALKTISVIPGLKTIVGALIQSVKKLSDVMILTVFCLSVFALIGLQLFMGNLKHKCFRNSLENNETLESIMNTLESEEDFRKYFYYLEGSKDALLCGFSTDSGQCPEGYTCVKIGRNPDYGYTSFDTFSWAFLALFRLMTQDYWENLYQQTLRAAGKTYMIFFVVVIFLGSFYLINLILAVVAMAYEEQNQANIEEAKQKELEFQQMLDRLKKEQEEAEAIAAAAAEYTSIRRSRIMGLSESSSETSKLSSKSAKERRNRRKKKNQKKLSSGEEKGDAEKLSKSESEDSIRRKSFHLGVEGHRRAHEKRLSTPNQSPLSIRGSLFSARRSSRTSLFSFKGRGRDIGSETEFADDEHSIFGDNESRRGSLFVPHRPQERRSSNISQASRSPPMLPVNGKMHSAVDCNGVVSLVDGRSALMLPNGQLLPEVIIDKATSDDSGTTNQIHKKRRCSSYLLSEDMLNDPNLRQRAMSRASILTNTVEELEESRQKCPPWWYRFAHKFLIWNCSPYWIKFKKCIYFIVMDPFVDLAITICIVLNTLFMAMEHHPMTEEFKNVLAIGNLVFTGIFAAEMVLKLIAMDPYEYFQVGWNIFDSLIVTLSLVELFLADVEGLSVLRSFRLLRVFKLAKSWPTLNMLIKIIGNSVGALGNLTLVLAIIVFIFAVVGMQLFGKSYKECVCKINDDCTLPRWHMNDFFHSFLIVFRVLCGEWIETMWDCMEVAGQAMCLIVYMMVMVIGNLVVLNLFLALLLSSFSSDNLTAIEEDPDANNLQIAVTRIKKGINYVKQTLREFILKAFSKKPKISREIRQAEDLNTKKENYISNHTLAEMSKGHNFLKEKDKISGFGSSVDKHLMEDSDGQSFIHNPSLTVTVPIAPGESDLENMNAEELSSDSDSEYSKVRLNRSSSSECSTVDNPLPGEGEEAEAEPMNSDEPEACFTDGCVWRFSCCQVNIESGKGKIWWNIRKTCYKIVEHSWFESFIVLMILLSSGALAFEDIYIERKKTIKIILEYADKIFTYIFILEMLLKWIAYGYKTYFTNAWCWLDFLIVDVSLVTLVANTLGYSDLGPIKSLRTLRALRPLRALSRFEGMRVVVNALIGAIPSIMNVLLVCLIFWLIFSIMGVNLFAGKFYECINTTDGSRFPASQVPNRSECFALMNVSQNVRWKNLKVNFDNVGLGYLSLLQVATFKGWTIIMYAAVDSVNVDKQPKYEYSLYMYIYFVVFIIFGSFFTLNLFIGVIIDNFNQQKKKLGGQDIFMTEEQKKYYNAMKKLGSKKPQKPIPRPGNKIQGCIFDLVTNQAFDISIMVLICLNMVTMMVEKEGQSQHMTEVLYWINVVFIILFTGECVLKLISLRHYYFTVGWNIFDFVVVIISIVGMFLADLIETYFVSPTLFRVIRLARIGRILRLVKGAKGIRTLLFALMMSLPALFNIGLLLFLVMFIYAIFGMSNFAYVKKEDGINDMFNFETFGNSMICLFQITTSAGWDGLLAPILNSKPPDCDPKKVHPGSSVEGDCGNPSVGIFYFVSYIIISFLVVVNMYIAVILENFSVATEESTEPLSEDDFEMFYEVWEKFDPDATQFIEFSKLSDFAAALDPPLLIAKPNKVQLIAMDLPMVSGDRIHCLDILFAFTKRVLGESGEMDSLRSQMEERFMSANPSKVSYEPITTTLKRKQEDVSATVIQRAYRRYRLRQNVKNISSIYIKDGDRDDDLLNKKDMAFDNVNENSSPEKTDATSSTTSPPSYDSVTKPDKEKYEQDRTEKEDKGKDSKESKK
Structure (SMILES),IC50 (hNav1.5) [µM],IC50 (hNav1.4) [µM],IC50 (hNav1.3) [µM],IC50 (hNav1.7),Nav1.4/Nav1.7 (hNav1.4)
CCCC[C@@H]1NC(=O)[C@H](Cc2c[nH]c3ccccc23)NC(=O)[C@H](CCCCN)NC(=O)[C@H](CCC(N)=O)NC(=O)[C@@H](NC(=O)[C@@H](N)Cc2ccc(O)cc2)CSSC[C@@H]2NC(=O)[C@@H]3CSSC[C@@H](C(=O)N[C@@H](CCCNC(=N)N)C(=O)N[C@@H](CCCCN)C(=O)N[C@H](C(=O)N[C@H](C(N)=O)[C@@H](C)CC)[C@@H](C)CC)NC(=O)[C@H](Cc4c[nH]c5ccccc45)NC(=O)[C@H](CC(C)C)NC(=O)[C@H](CCCCN)NC(=O)[C@H](CSSC[C@H](NC(=O)[C@H]([C@@H](C)O)NC(=O)[C@H](Cc4c[nH]c5ccccc45)NC1=O)C(=O)N[C@@H](CC(=O)O)C(=O)N[C@@H](CO)C(=O)N[C@@H](CCCCN)C(=O)N[C@@H](CCCNC(=N)N)C(=O)N[C@@H](C)C(=O)N3)NC(=O)[C@H](CCC(=O)O)NC(=O)[C@H](CC(C)C)NC(=O)CNC(=O)[C@H](CCC(=O)O)NC2=O [compound 273],> 5,> 5,4.1,0.19 µM,
CC[C@H](C)[C@H](NC(=O)[C@H](Cc1ccc(O)cc1)NC(=O)[C@H](CCCCN)NC(=O)[C@H](CCCNC(=N)N)NC(=O)[C@@H]1CSSC[C@@H]2NC(=O)[C@H](C)NC(=O)[C@H](CCCNC(=N)N)NC(=O)[C@H](CCCCN)NC(=O)[C@H](CO)NC(=O)[C@H](CC(=O)O)NC(=O)[C@@H]3CSSC[C@H](NC(=O)[C@H](CCC(=O)O)NC(=O)[C@H](CC(C)C)NC(=O)CNC(=O)[C@H](CCC(=O)O)NC(=O)[C@H](CSSC[C@H](NC(=O)[C@@H](N)Cc4ccc(O)cc4)C(=O)N[C@@H](CCC(N)=O)C(=O)N[C@@H](CCCCN)C(=O)N[C@@H](Cc4c[nH]c5ccccc45)C(=O)N[C@@H](CCSC)C(=O)N[C@@H](Cc4c[nH]c5ccccc45)C(=O)N[C@@H]([C@@H](C)O)C(=O)N3)NC2=O)C(=O)N[C@@H](CCCCN)C(=O)N[C@@H](CC(C)C)C(=O)N[C@@H](CC(C)C)C(=O)N1)C(N)=O [compound 224],> 5,> 5,> 5,> 5 µM,
CCCC[C@@H]1NC(=O)[C@H](CC(C)C)NC(=O)[C@H](CCCCN)NC(=O)[C@@H]2CSSC[C@@H]3NC(=O)[C@H]([C@@H](C)O)NC(=O)[C@H](Cc4c[nH]c5ccccc45)NC(=O)[C@H](CCSC)NC(=O)[C@H](Cc4c[nH]c5ccccc45)NC(=O)[C@H](CCCCN)NC(=O)[C@H](CCC(N)=O)NC(=O)[C@@H](NC(=O)[C@@H](N)Cc4ccc(O)cc4)CSSC[C@H](NC(=O)[C@H](CSSC[C@@H](C(=O)N[C@@H](CCCNC(=N)N)C(=O)N[C@@H](CCCCN)C(=O)N[C@@H](Cc4ccc(O)cc4)C(=O)N[C@H](C(N)=O)[C@@H](C)CC)NC1=O)NC(=O)[C@H](C)NC(=O)[C@H](CCCNC(=N)N)NC(=O)[C@H](CCCCN)NC(=O)[C@H](CO)NC(=O)[C@H](CC(=O)O)NC3=O)C(=O)N[C@@H](CCC(=O)O)C(=O)NCC(=O)N[C@@H](CC(C)C)C(=O)N[C@@H](CCC(=O)O)C(=O)N2 [compound 225],> 5,> 5,> 5,> 5 µM,
CC[C@H](C)[C@H](NC(=O)[C@@H](NC(=O)[C@H](CCCCN)NC(=O)[C@H](CCCNC(=N)N)NC(=O)[C@@H]1CSSC[C@@H]2NC(=O)[C@H](C)NC(=O)[C@H](CCCNC(=N)N)NC(=O)[C@H](CCCCN)NC(=O)[C@H](CO)NC(=O)[C@H](CC(=O)O)NC(=O)[C@@H]3CSSC[C@H](NC(=O)[C@H](CCC(=O)O)NC(=O)[C@H](CC(C)C)NC(=O)CNC(=O)[C@H](Cc4cn(CCCOCCOCCOCCOCCOCCOCCOCCOCCOCCOCCN)nn4)NC(=O)[C@H](CSSC[C@H](NC(=O)[C@@H](N)Cc4ccc(O)cc4)C(=O)N[C@@H](CCC(N)=O)C(=O)N[C@@H](CCCCN)C(=O)N[C@@H](Cc4c[nH]c5ccccc45)C(=O)N[C@@H](CCSC)C(=O)N[C@@H](Cc4c[nH]c5ccccc45)C(=O)N[C@@H]([C@@H](C)O)C(=O)N3)NC2=O)C(=O)N[C@@H](CCCCN)C(=O)N[C@@H](CC(C)C)C(=O)N[C@@H](Cc2c[nH]c3ccccc23)C(=O)N1)[C@@H](C)CC)C(N)=O [compound 178],15.1,> 5,> 5,0.18 µM,28
CC[C@H](C)[C@H](NC(=O)[C@H](CC(=O)O)NC(=O)[C@H](CCCCN)NC(=O)[C@H](CCCNC(=N)N)NC(=O)[C@@H]1CSSC[C@@H]2NC(=O)[C@H](C)NC(=O)[C@H](CCCNC(=N)N)NC(=O)[C@H](CCCCN)NC(=O)[C@H](CO)NC(=O)[C@H](CC(=O)O)NC(=O)[C@@H]3CSSC[C@H](NC(=O)[C@H](CCC(=O)O)NC(=O)[C@H](CC(C)C)NC(=O)CNC(=O)[C@H](CCC(=O)O)NC(=O)[C@H](CSSC[C@H](NC(=O)[C@@H](N)Cc4ccc(O)cc4)C(=O)N[C@@H](CCC(N)=O)C(=O)N[C@@H](CCCCN)C(=O)N[C@@H](Cc4c[nH]c5ccccc45)C(=O)N[C@@H](CCSC)C(=O)N[C@@H](Cc4c[nH]c5ccccc45)C(=O)N[C@@H]([C@@H](C)O)C(=O)N3)NC2=O)C(=O)N[C@@H](CCCCN)C(=O)N[C@@H](CC(C)C)C(=O)N[C@@H](Cc2c[nH]c3ccccc23)C(=O)N1)C(N)=O [compound 128],13.9,> 5,> 5,1.34 µM,4
CC[C@H](C)[C@H](NC(=O)[C@H](Cc1ccc(O)cc1)NC(=O)[C@H](CCCCN)NC(=O)[C@H](CCCNC(=N)N)NC(=O)[C@@H]1CSSC[C@@H]2NC(=O)[C@H](C)NC(=O)[C@H](CCCNC(=N)N)NC(=O)[C@H](CCCCN)NC(=O)[C@H](CO)NC(=O)[C@H](CC(=O)O)NC(=O)[C@@H]3CSSC[C@H](NC(=O)[C@H](CCC(=O)O)NC(=O)[C@H](CC(C)C)NC(=O)CNC(=O)[C@H](CCC(=O)O)NC(=O)[C@H](CSSC[C@H](NC(=O)[C@@H](N)Cc4ccc(O)cc4)C(=O)N[C@@H](CCC(N)=O)C(=O)N[C@@H](CCCCN)C(=O)N[C@@H](CC(N)=O)C(=O)N[C@@H](CCSC)C(=O)N[C@@H](Cc4c[nH]c5ccccc45)C(=O)N[C@@H]([C@@H](C)O)C(=O)N3)NC2=O)C(=O)N[C@@H](CCCCN)C(=O)N[C@@H](CC(C)C)C(=O)N[C@@H](Cc2c[nH]c3ccccc23)C(=O)N1)C(N)=O [compound 201],> 5,> 5,> 5,4.2 µM and > 5 µM,
CCC[C@@H]1NC(=O)[C@H](Cc2c[nH]c3ccccc23)NC(=O)[C@H](CCCCN)NC(=O)[C@H](CCC(N)=O)NC(=O)[C@@H](NC(=O)[C@@H](N)Cc2ccc(O)cc2)CSSC[C@@H]2NC(=O)[C@@H]3CSSC[C@@H](C(=O)N[C@@H](CCCNC(=N)N)C(=O)N[C@@H](CCCCN)C(=O)N[C@H](C(=O)N[C@H](C(N)=O)[C@@H](C)CC)[C@@H](C)CC)NC(=O)[C@H](Cc4c[nH]c5ccccc45)NC(=O)[C@H](CC(C)C)NC(=O)[C@H](CCCCN)NC(=O)[C@H](CSSC[C@H](NC(=O)[C@H]([C@@H](C)O)NC(=O)[C@H](Cc4c[nH]c5ccccc45)NC1=O)C(=O)N[C@@H](CC(=O)O)C(=O)N[C@@H](CO)C(=O)N[C@@H](CCCCN)C(=O)N[C@@H](CCCNC(=N)N)C(=O)N[C@@H](C)C(=O)N3)NC(=O)[C@H](CCC(=O)O)NC(=O)[C@H](CC(C)C)NC(=O)CNC(=O)[C@H](CCC(=O)O)NC2=O [compound 111],9.2,> 5,> 5,0.69 µM,7
CC[C@H](C)[C@H](NC(=O)[C@H](Cc1ccc(C(=O)O)cc1)NC(=O)[C@H](CCCCN)NC(=O)[C@H](CCCNC(=N)N)NC(=O)[C@@H]1CSSC[C@@H]2NC(=O)[C@H](C)NC(=O)[C@H](CCCNC(=N)N)NC(=O)[C@H](CCCCN)NC(=O)[C@H](CO)NC(=O)[C@H](CC(=O)O)NC(=O)[C@@H]3CSSC[C@H](NC(=O)[C@H](CCC(=O)O)NC(=O)[C@H](CC(C)C)NC(=O)CNC(=O)[C@H](CCC(=O)O)NC(=O)[C@H](CSSC[C@H](NC(=O)[C@@H](N)Cc4ccc(O)cc4)C(=O)N[C@@H](CCC(N)=O)C(=O)N[C@@H](CCCCN)C(=O)N[C@@H](Cc4c[nH]c5ccccc45)C(=O)N[C@@H](CCSC)C(=O)N[C@@H](Cc4c[nH]c5ccccc45)C(=O)N[C@@H]([C@@H](C)O)C(=O)N3)NC2=O)C(=O)N[C@@H](CCCCN)C(=O)N[C@@H](CC(C)C)C(=O)N[C@@H](Cc2c[nH]c3ccccc23)C(=O)N1)C(N)=O [compound 127],16.7,> 5,> 5,2.35 µM,2
CC[C@H](C)[C@H](NC(=O)[C@@H](NC(=O)[C@H](CCCCN)NC(=O)[C@H](CCCNC(=N)N)NC(=O)[C@@H]1CSSC[C@@H]2NC(=O)[C@H](C)NC(=O)[C@H](CCCNC(=N)N)NC(=O)[C@H](CCCCN)NC(=O)[C@H](CO)NC(=O)[C@H](CC(=O)O)NC(=O)[C@@H]3CSSC[C@H](NC(=O)[C@H]([C@@H](C)CC)NC(=O)[C@H](CC(C)C)NC(=O)CNC(=O)[C@H](CCC(=O)O)NC(=O)[C@H](CSSC[C@H](NC(=O)[C@@H](N)Cc4ccc(O)cc4)C(=O)N[C@@H](CCC(N)=O)C(=O)N[C@@H](CCCCN)C(=O)N[C@@H](Cc4c[nH]c5ccccc45)C(=O)N[C@@H](CCSC)C(=O)N[C@@H](Cc4c[nH]c5ccccc45)C(=O)N[C@@H]([C@@H](C)O)C(=O)N3)NC2=O)C(=O)N[C@@H](CCCCN)C(=O)N[C@@H](CC(C)C)C(=O)N[C@@H](Cc2c[nH]c3ccccc23)C(=O)N1)[C@@H](C)CC)C(N)=O [compound 118],8.6,1.3,2.2,0.09 µM,15
